Reference: US7018824B2, “Mannosyl transfer with regeneration of GDP-mannose” (The Scripps Research Institute, priority 1993, dated 2006)
Read-outs that look alike come from different tables or passages of the source. Peptide text beside a SMILES is read from it. * marks the point of attachment. X1 = OCC1OC(*)C(O)C(O)C1O; Cbz = O=C(OCc1ccccc1)*

T1: Recombinant α1,2-Mannosyltransferase (Saccharomyces cerevisiae, UniProt P27809)
T1 construct: made in house; host or cells: E. coli XL1-Blue, periplasmic fraction
T1 sequence (P27809 31-442): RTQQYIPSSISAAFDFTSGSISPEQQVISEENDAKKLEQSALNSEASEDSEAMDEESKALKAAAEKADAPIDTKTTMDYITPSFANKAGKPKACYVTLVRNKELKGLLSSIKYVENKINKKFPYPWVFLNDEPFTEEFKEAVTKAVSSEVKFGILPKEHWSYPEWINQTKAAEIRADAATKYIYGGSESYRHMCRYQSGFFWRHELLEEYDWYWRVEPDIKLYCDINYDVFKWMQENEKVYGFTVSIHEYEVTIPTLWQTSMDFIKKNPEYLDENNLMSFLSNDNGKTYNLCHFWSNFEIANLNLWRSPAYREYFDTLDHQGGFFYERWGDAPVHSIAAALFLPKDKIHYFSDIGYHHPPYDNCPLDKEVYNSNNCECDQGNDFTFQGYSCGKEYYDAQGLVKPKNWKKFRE


Tests used:
[1] = target: T1, Recombinant α1,2-Mannosyltransferase; test: Substrate specificity and enzyme kinetics of the mannosyltransfer reaction (GDP-Man + acceptor); assay type: biochemical; conditions: for substrate (acceptor) quality in words: 150 mM substrate, 3.3 mM GDP-Man; for Vrelative: calculated as the ratio of Vmax, ManαOMe = 1.0
Experimental: GDP-Man (^14C) (10 mM, 10 mL), α-methyl mannopyranoside (500 mM, 10 μL) and the enzyme solution (10 μL) were mixed in a buffer containing 50 mM HEPES (pH 7.2), 0.1 percent Triton and 10 mM MnCl2. The mixture was incubated at 30.0° C. for one hour. The unreacted GDP-mannose was removed by adding QAE-Sephadex (400 μL) to the solution. After the resin was removed by centrifugation, the radioactivity of the solution was counted in 10 mL of scintillation fluid. Controls were carried out by omitting the acceptor or the enzyme. The substrate specificity was determined in a 30 μL assay solution containing 150 mM substrate, 3.3 mM GDP-Man, overproduced α1,2-ManT, 50 mM HEPES (pH 7.2), 0.1 percent Triton and 10 mM MnCl2. The mixture was incubated at 30° C. for 1 hour and the formation of product was determined by the radioactivity assay. Initial velocities were measured as described in the enzyme assay at various concentrations of acceptors for kinetic studies. From the Lineweaver-Burk plots of the data, Km and Vmax were determined.

[2] = test system: native α1,2-mannosyltransferase; conditions: native enzyme, literature value for comparison; cited from earlier work
[3] = α1,2-Mannosyltransferase activity assay; assay type: biochemical; conditions: after Superose and Mono Q FPLC purification; one unit transfers 1.0 μmol mannose per minute at 30° C.
Experimental: GDP-Man (^14C) (10 mM, 10 mL), α-methyl mannopyranoside (500 mM, 10 μL) and the enzyme solution (10 μL) were mixed in a buffer containing 50 mM HEPES (pH 7.2), 0.1 percent Triton and 10 mM MnCl2. The mixture was incubated at 30.0° C. for one hour. The unreacted GDP-mannose was removed by adding QAE-Sephadex (400 μL) to the solution. After the resin was removed by centrifugation, the radioactivity of the solution was counted in 10 mL of scintillation fluid. Controls were carried out by omitting the acceptor or the enzyme.

Enzyme stability study = assay type: physicochemical; conditions: after four days at 20° C. in 100 mM Tris-HCl, 5 mM MgCl2 buffer, pH 7.4
Experimental: The enzyme was incubated at room temperature in 100 mM Tris-HCl buffer, 5 mM MgCl2, pH 7.4, containing 0.5 mM dithiothreitol. At different time intervals, 10 μL aliquots were taken and assayed for mannosyltransferase activity as described above.

[4] = Organic solvent effect study on the mannosyltransfer reaction; assay type: biochemical
Experimental: GDP-Man (^14C) (10 mM, 10 μL) and methyl mannopyranoside (500 mM, 10 μL) were mixed with a certain volume of an organic solvent and H2O to achieve the desired organic solvent concentration. The enzyme (10 μL) was then added to the mixture. The solution was incubated at 30.0° C. for 1 hour. The enzyme activity was measured as described in the enzyme assay section.

[5] = acceptor substrate of recombinant enzyme, read-out: Km value
[6] = acceptor with GDP-Man, Lineweaver-Burk plots, 30° C., pH 7.2, read-out: Km (acceptor)

| Molecule | substrate (acceptor) quality in words ([1]; recombinant α1,2-ManT) | Vrelative ([1]; acceptor with GDP-Man) | further results |
| --- | --- | --- | --- |
| CO[C@H]1O[C@H](CO)[C@@H](O)[C@H](O)[C@@H]1O [Compound 1, α-methylmannopyranoside, reference compound] |  | 1.0 | Km [1, 5]: 57 mM; Km [1, 6]: 57 mM |
| O=C[C@@H](O)[C@@H](O)[C@H](O)[C@H](O)CO [Compound 2, mannose] |  | 0.46 | Km [2]: 100 mM; Km (acceptor) ([1]; acceptor with GDP-Man, Lineweaver-Burk plots, 30° C., pH 7.2): 193 mMO |
| CO[C@H]1O[C@H](CO)[C@@H](O)[C@H](O)[C@@H]1O[C@H]1O[C@H](CO)[C@@H](O)[C@H](O)[C@@H]1O [Compound 3, Manα1,2ManαOMe] |  | 0.62 | Km [1, 5]: 28 mM; Km [1, 6]: 28 mM |
| CO[C@H]1O[C@H](C)[C@@H](O)[C@H](O)[C@@H]1O [Compound 4, Methyl 6-Deoxy-α-D-mannopyranoside] | poor substrates | 0.06 |  |
| CO[C@H]1O[C@H](CN=[N+]=[N-])[C@@H](O)[C@H](O)[C@@H]1O [Compound 5, 6-Azido-6-deoxy-ManαOMe] | poor substrates | 0.02 |  |
| CO[C@H]1O[C@H](COS(=O)(=O)c2ccc(C)cc2)[C@@H](O)[C@H](O)[C@@H]1O [Compound 12, 6-Tosyl-ManαOMe] |  | 0.00 |  |
| O=C[C@@H](O)[C@H](O)[C@H](O)CO [D-arabinose, reference compound] | not substrates |  |  |
| O=C[C@@H](O)[C@@H](O)[C@@H](O)[C@H](O)CO [D-talose, reference compound] | not substrates |  |  |
| Cbz-Thr(α-Man)-Val-OMe [Compound 7] | comparable with ManαOMe as an acceptor | 0.71 | Km [1, 6]: 7.8 mM |
| recombinant α1,2-ManT: water-dispersible recombinant α1,2-mannosyltransferase catalytic domain, residues about 31-442 of the S. cerevisiae enzyme, expressed in E. coli (protein) RTQQYIPSSISAAFDFTSGSISPEQQVISEENDAKKLEQSALNSEASEDSEAMDEESKALKAAAEKADAPIDTKTTMDYITPSFANKAGKPKACYVTLVRNKELKGLLSSIKYVENKINKKFPYPWVFLNDEPFTEEFKEAVTKAVSSEVKFGILPKEHWSYPEWINQTKAAEIRADAATKYIYGGSESYRHMCRYQSGFFWRHELLEEYDWYWRVEPDIKLYCDINYDVFKWMQENEKVYGFTVSIHEYEVTIPTLWQTSMDFIKKNPEYLDENNLMSFLSNDNGKTYNLCHFWSNFEIANLNLWRSPAYREYFDTLDHQGGFFYERWGDAPVHSIAAALFLPKDKIHYFSDIGYHHPPYDNCPLDKEVYNSNNCECDQGNDFTFQGYSCGKEYYDAQGLVKPKNWKKFRE |  |  | specific activity [3]: about 1 unit/mg; activity retained (Enzyme stability study): more than 90%; remaining activity ([4]; 10-percent DMF-buffer solution): about 80%; remaining activity ([4]; 10 percent acetonitrile-buffer solution): about 50%; loss of activity ([4]; DMF or acetonitrile increased to 20 percent): 95%; tolerated acetone concentration ([4]; acetone-buffer solution): ≤ 20%; tolerated methanol concentration ([4]; methanol-buffer solution): up to 30% |

Now from value to molecule, other results behind:

| substrate (acceptor) quality in words ([1]; recombinant α1,2-ManT) | Vrelative ([1]; acceptor with GDP-Man) | Molecule | further results |
| --- | --- | --- | --- |
| neither a substrate |  | OC[C@H]1NC[C@@H](O)[C@@H](O)[C@@H]1O [1-deoxymannojirimycin, reference compound] | inhibitor of α1,2-ManT in words ([1]; recombinant α1,2-ManT): nor an inhibitor |
| poor substrates | 0.07 | CO[C@H]1O[C@H](CN)[C@@H](O)[C@H](O)[C@@H]1O [Compound 6, 6-Amino-6-deoxy-ManαOMe] |  |
| good substrates | 0.68 | COC(=O)C(NC(=O)C(N)C(C)OC1OC(CO)C(O)C(O)C1O)C(C)C (stereo not drawn) [Compound 8, Thr(α-Man)-Val-OMe] |  |
| good substrates | 0.55 | CC(NC(=O)CNC(=O)C(NC(=O)C(NC(=O)OCc1ccccc1)C(C)OC1OC(CO)C(O)C(O)C1O)C(C)C)C(N)=O (stereo not drawn) [Compound 9, Cbz-Thr(α-Man)-Val-Gly-Ala-NH2] (Cbz-T(X1)VGA-NH2; configuration not given here) |  |
|  | 0.17 | COC(=O)C(NC(=O)C(NC(=O)OCc1ccccc1)C(C)OC1OC(CO)C(O)C(O)C1OC1OC(CO)C(O)C(O)C1O)C(C)C (stereo not shown) [Compound 11, Cbz-Thr(αManα1,2Man)-Val-OMe] | Km [1, 6]: 26 mM |
| not substrates | 0.00 | O=[N+]([O-])c1ccc(O[C@H]2O[C@H](CO)[C@@H](O)[C@H](O)[C@@H]2O)cc1 [Compound 13, p-nitrophenyl α-mannopyranoside, reference compound] |  |
| not substrates |  | O=C[C@@H](O)[C@H](O)[C@H](O)[C@H](O)CO [D-altrose, reference compound] |  |
| not substrates |  | O=C[C@@H](O)[C@H](O)[C@@H](O)[C@H](O)CO [D-idose, reference compound] |  |
| not substrates |  | O=C[C@@H](O)[C@@H](O)[C@H](O)CO [D-lyxose, reference compound] |  |
|  | 0.35 | Boc-Try-Thr(α-Man)-Val-OMe [Compound 10] | Km [1, 5]: 0.7 mM; Km [1, 6]: 0.7 mM; Km, times less than that of Compound 7 ([1]; ratio of Km values): 10 times; Km, times smaller than that of ManαOMe (Compound 1) ([1]; ratio of Km values): 80 times |
